The source of these data is PMC11156899, “High-throughput screening unveils nitazoxanide as a potent PRRSV inhibitor by targeting NMRAL1” (Nature Communications, 2024).

Series [1] relates to Porcine alveolar macrophages (PAM). Description: in vitro. On the procedure:
(§1) A concentration-gradient screening strategy was employed for 141 compounds using indirect immunofluorescence assay (IFA). […] Data are mean ± SEM.
(§2) Cells were seeded in 96-well plates and grown in DMEM supplemented with 10% FBS. Upon reaching confluence, compounds were diluted to varying concentrations in 2% FBS-containing medium. Control wells contained DMEM with 0.5% DMSO. Treated cells were incubated at 37 °C in a 5% CO2 humidified environment for 48 or 72 h, followed by cytotoxicity assessment as outlined in our previous work[21]. […]

The test system of a further series is PRRSV (GSWW-18 strain). Description: Anti-PRRSV dose-response (EC50, IFA) in PAM cells. The format is cell-based, Porcine Reproductive and Respiratory Syndrome Virus. To be noted: Porcine reproductive and respiratory syndrome virus.
The nature of series [2]: Cytotoxicity assay (CC50) in PAM cells. To be noted: pig, porcine alveolar macrophages (PAM cells). On the procedure:
as §1, §2

The test system of series [3] is PRRSV GSWW-18 strain in Marc-145 cells. To be noted: reason for exclusion before third round. The method, then:
Subsequently, a second-round screening of the selected 141 compounds was conducted on Marc-145 cells using immunofluorescence assay (IFA) at four different dosage levels (Fig. 2a; Supplementary Fig. 2).
as §1
(1 picture or pasted object on this page, not shown here)

Another series concerns the target NMRAL1 (Chlorocebus sabaeus, UniProt A0A0D9R9W0). Description: Surface plasmon resonance, immobilized NMRAL1. The format is binding. The note with it: SPR. On the procedure:
For SPR, the Biacore T200 system (Cytiva) was used to assess binding affinity and kinetics. The Series S Sensor Chip CM5 (BR100530, Cytiva) immobilized 13,000 resonance units (RU) of NMRAL1 (50 μg/ml, pH 4.0, 10 μl/min, 25°C). TIZ (10 to 0.3125 μM) dissolved in a 5% DMSO running buffer (1.05 × HBS-EP+, Cytiva) was applied, with a solvent correction fluid gradient of 4.5–5.8% DMSO. Contact time was set to 120 s for binding and 300 s for dissociation. Post-experiment, data were analyzed using Biacore T200 Evaluation Software 3.0 with Affinity Fit 1:1 Binding model.
Background: In SPR one partner is held on a chip, and binding of the other changes the refractive index at the surface.

In a further series the test system is NSP12. Description: Surface plasmon resonance, NSP12 purified in vitro. The format is binding, PRRSV GSWW-18 strain. An excerpt: Supplementary Fig. 10: The Affinity of Nsp1α and Nsp12 with TIZ is Lower Than That of NMRAL1.
(a) The KD value of NMRAL1 obtained through the Affinity fit model.
(b) The KD value of Nsp1α determined using the Kinetics fit model.
(c) The KD value of Nsp1α obtained through the Affinity fit model.
'FT' is the flow-through after passing through the Ni column. 'Ni-200' and 'Ni-500' represent different purification conditions with varying concentrations. 'L2' is the total cell lysate after changing the expression conditions. 'S2' is the supernatant after cell lysis with changed expression conditions. The portions highlighted in red boxes indicate the target protein. […]
constant (KD) between Nsp1α and TIZ is lower than that of NMRAL1. We observe that […]
attempting different systems (Fig. R5 e-h). Although SPR confirms the interaction […]
possibly be attributed to the abnormal protein conformation of NSP12 purified by IBs.
The existing data also indicate that the early addition of NTZ produces a more pronounced antiviral effect (Extended Data Fig. 9), and the overexpression of NMRAL1 can almost negate the antiviral action of NTZ. This leads us to speculate that NMRAL1 may be one of the primary targets of NTZ's mechanism of action, while Nsp1α and NSP12 may serve as secondary targets.
Fig.R5 Validation of the binding between Nsp1α and Nsp12 with TIZ through SPR,

Series [4] is described as follows: Pharmacokinetics and tissue distribution of TIZ in swine after oral NTZ. The class given is in vivo, pig. The method, then:
Fig. 4 NTZ inhibition of PRRSV shedding and transmission. a Viral load in blood, and shedding in oronasal and anal swabs. Viral load or shedding in blood and oronasal swabs were quantified from 2 to 4 dpi, and in anal swabs from 2 to 5 dpi. Viral copy numbers for each pig during this period are presented. b NTZ suppression of PRRSV proliferation in blood. 48 h post infection (infected with 1 × 10^5.5 TCID50 of GSWW-18 strain), pigs were orally administered NTZ at 10 mg/kg or 5 mg/kg at 0 h and 12 h, followed by blood collection via anterior vena cava or ear marginal vein. […] Parameters were calculated using a non-compartmental analysis (NCA). Eighteen pigs were evenly divided into three dosage groups (n = 6), each housed separately, fasted for 12 h before the experiment, and monitored by professional veterinarians for welfare and enclosure cleaning to prevent coprophagia. g Tissue distribution of NTZ’s main metabolite TIZ. Tissues were collected as per Method Pharmacokinetics and Tissue Distribution of NTZ, quantifying TIZ content at various times (n = 2). […] Symbols represent three or six independent biological replicates (a, b, f) Scatter plots (a, f) show mean ± SD values of samples, with P-values as indicated, calculated via two-way ANOVA with Dunnett’s multiple-comparison test (a), P-values < 0.0332 were considered significant. […]

In the next series the test system is PRRSV GSWW-18 strain. Put plainly: In vivo antiviral effect in swine infected with GSWW-18 strain. Also noted: species or system pig.
[5] abbreviates: PAM cells, mean ± SEM, n = 2, unit only on axis title, read-out: EC50.
Where [6] appears, read: third round of screening, PAM cells.

Structures are written as SMILES. “And” between values parts separate entries of the source, which are not always exact repeats. Equal entries are not always repeated. Where two headings read alike, the source gives them in different places.

Chain of NMRAL1 (A0A0D9R9W0 entry or part of it): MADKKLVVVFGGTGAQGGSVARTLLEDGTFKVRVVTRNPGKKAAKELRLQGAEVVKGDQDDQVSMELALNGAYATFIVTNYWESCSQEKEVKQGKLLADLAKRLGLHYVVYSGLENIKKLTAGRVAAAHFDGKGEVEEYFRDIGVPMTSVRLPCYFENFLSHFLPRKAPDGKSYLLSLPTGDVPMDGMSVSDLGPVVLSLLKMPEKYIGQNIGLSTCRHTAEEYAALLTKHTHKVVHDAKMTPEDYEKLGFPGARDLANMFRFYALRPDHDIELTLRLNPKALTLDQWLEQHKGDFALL

For the molecule `CN(C)CCCOc1nn(Cc2ccccc2)c2ccccc12` [Benzydamine], the “cytotoxicity (in words)” value in series [1] is listed as “low cytotoxicity”. Also, the EC50 with PRRSV (GSWW-18 strain) (setting [5]) turned out to be 2.01 ± 0.469 µM.

In the case of `CN1CCC(=C2c3ccccc3CCc3sccc32)CC1` [Pizotifen], the “cytotoxicity (in words)” value in series [1] was “low cytotoxicity”. For the same molecule, in the series with PRRSV (GSWW-18 strain) (setting [5]), the EC50 was 0.541 ± 0.14 µM.

With `CCN(CC)CCCC(C)Nc1ccnc2cc(Cl)ccc12` (stereo not shown) [Chloroquine], in series [1] (setting [6]), the “cytotoxicity (in words)” value is reported as “low cytotoxicity”. Besides, the EC50 with PRRSV (GSWW-18 strain) (setting [5]) stood at 1.53 ± 0.475 µM.

Turning to `CN(Cc1cnc2nc(N)nc(N)c2n1)c1ccc(C(=O)N[C@@H](CCC(=O)O)C(=O)O)cc1` [Methotrexate], the CC50 in series [2] stood at 6.83 ± 2.25 µM. The EC50 with PRRSV (GSWW-18 strain) (setting [5]) worked out at 0.307 ± 0.316 µM.

Turning to `CCC(CC)COC(=O)[C@H](C)N[P@](=O)(OC[C@H]1O[C@@](C#N)(c2ccc3c(N)ncnn23)[C@H](O)[C@@H]1O)Oc1ccccc1` [Remdesivir], the “cytotoxicity (in words)” value in series [1] is reported as “low cytotoxicity”. The EC50 in the series with PRRSV (GSWW-18 strain) (setting [5]) was 4.99 ± 2.37 µM.

Turning to `C[C@H]1O[C@@H](O[C@H]2CC[C@@]3(C)[C@H](CC[C@@H]4[C@@H]3C[C@@H](O)[C@]3(C)[C@@H](C5=CC(=O)OC5)CC[C@]43O)C2)C[C@H](O)[C@@H]1O[C@H]1C[C@H](O)[C@H](O[C@H]2C[C@H](O)[C@H](O[C@@H]3O[C@H](CO)[C@@H](O)[C@H](O)[C@H]3O)[C@@H](C)O2)[C@@H](C)O1` [Deslanoside], in series [3], the “cytotoxicity (in words)” value is “high cytotoxicity”.

As for `O=C(Nc1ncc([N+](=O)[O-])s1)c1ccccc1O` [TIZ, Tizoxanide], the “affinity compared between proteins” value on NMRAL1 (NMRAL1 vs NSP1α and NSP12) is “higher than that of NSP1α and NSP12”. Also, the Kd was 4.5 µM on NMRAL1 (legend of Fig. 6o, Supplementary Fig. 10a (Affinity fit model)); ~2.87 µM and 2.87 µM at NMRAL1 (value printed in Fig. 6o with ka and kd). In addition, the kon on NMRAL1 (read-out: ka) is 2380 M⁻¹ s⁻¹. Also, on NMRAL1 (read-out: kd), the koff was determined as 0.00683 s⁻¹. Further, the “interaction with NSP12 (SPR)” value in the series with NSP12 is reported as “weak interaction”. In series [4] (pig tissues after oral NTZ, n = 2), the tissue distribution entry was “primarily distributed in small and large intestines, MesLNs, ILNs, but not in high concentrations in lungs”. For the same molecule, the Tmax in series [4] (pig, in vivo, po, 25 mg/kg) is given as 2.167 h.

`CC(=O)c1ccc2c(c1)N(CCCN1CCN(CCO)CC1)c1ccccc1S2` [Acetophenazine]: in series [1] (setting [6]), the “cytotoxicity (in words)” value is “low cytotoxicity”. This molecule gave an EC50 in the series with PRRSV (GSWW-18 strain) of 0.718 ± 0.224 µM.

For the molecule `CN(C/C=C/C#CC(C)(C)C)Cc1cccc2ccccc12` [Terbinafine], the “cytotoxicity (in words)” value in series [1] is “low cytotoxicity”. In the series with PRRSV (GSWW-18 strain) (setting [5]), the EC50 is 1.22 ± 0.328 µM.

Take `CCN(CCO)CCCC(C)Nc1ccnc2cc(Cl)ccc12` (stereo not shown) [Hydroxychloroquine]: the “cytotoxicity (in words)” value in series [1] is listed as “low cytotoxicity”. Also, the EC50 in the series with PRRSV (GSWW-18 strain) (setting [5]) was found to be 1.09 ± 0.187 µM.

`NC(=O)c1ncn([C@@H]2O[C@H](CO)[C@@H](O)[C@H]2O)n1` [RBV, Ribavirin]: in the series on PRRSV GSWW-18 strain (blood, oronasal and anal swabs), the “viral load and shedding, setting of efficacy” value is recorded as “effective only in the prophylactic setting”. Further, in the series with PRRSV GSWW-18 strain (positive control group), the “efficacy against PRRSV in swine” value is on record as “appeared to lack efficacy”.

Regarding `COc1c(C)c2c(c(O)c1C/C=C(\C)CCC(=O)O)C(=O)OC2` [Mycophenolic acid], the EC50 with PRRSV (GSWW-18 strain) (setting [5]) worked out at 0.305 ± 0.067 µM.

As for `CS(=O)(=O)CCNCc1ccc(-c2ccc3ncnc(Nc4ccc(OCc5cccc(F)c5)c(Cl)c4)c3c2)o1` [Lapatinib], the CC50 in series [2] came to 9.51 ± 0.243 µM. In the series with PRRSV (GSWW-18 strain) (setting [5]), the EC50 came to 1.77 ± 0.535 µM.

Regarding `Nc1ccn([C@@H]2O[C@H](CO)[C@@H](O)C2(F)F)c(=O)n1` [Gemcitabine], the EC50 in the series on PRRSV (GSWW-18 strain) (setting [5]) is 0.109 ± 0.029 µM.

What is called EC50 is the concentration at which the effect is half-maximal. For orientation: CC50 means the concentration that lowers cell viability or growth by half. Higher therefore signals better tolerance by the cells. One may read the Kd as the concentration at which binding is half-saturated. Read a high Kd as a looser complex. As usually defined, the Tmax is the time from dosing to the highest level.
